In ChEMBL document CHEMBL5252515, “Discovery of 6-Amino-2-{[(1S)-1-methylbutyl]oxy}-9-[5-(1-piperidinyl)pentyl]-7,9-dihydro-8H-purin-8-one (GSK2245035), a Highly Potent and Selective Intranasal Toll-Like Receptor 7 Agonist for the Treatment of Asthma” (J Med Chem, 2016):

Assays:
Toll-like receptor 8 = target: T1, Toll-like receptor 8 (Homo sapiens, UniProt Q9NR97); test: Agonist activity at TLR8 (unknown origin) expressed in human U2OS cells by luciferase reporter assay; type: cell-based
T1 sequence (Q9NR97 whole entry): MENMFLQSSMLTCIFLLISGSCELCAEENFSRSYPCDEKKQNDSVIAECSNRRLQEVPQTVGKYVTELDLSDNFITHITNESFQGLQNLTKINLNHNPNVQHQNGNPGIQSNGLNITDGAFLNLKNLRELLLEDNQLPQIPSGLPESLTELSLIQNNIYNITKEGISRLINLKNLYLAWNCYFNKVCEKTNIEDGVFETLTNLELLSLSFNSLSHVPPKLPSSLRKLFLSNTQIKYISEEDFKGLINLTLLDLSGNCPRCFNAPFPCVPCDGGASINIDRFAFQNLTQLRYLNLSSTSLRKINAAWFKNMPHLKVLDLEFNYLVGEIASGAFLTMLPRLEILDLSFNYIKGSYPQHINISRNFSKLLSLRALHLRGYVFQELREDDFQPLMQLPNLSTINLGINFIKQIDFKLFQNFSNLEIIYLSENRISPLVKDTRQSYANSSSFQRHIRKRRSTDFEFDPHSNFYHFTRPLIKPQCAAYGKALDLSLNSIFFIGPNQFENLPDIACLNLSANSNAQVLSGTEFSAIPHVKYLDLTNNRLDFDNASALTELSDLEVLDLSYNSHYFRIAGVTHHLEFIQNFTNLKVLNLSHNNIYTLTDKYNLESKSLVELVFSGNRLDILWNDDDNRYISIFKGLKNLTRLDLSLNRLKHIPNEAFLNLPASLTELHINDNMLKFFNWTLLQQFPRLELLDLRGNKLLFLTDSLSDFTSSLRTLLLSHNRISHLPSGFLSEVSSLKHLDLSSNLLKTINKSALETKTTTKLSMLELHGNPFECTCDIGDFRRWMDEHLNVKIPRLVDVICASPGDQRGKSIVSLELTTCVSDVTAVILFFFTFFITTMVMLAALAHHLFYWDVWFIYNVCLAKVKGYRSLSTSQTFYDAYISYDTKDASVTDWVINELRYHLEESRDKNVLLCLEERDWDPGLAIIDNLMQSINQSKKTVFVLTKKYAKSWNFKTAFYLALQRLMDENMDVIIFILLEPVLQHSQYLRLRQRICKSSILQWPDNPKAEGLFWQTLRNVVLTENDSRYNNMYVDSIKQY

Toll-like receptor 7 = target: T2, Toll-like receptor 7 (Homo sapiens, UniProt Q9NYK1); test: Agonist activity at TLR7 in human whole blood assessed as induction of IFN-gamma production after 20 hrs by electrochemiluminescence assay; type: tissue-based
T2 sequence (Q9NYK1 whole entry): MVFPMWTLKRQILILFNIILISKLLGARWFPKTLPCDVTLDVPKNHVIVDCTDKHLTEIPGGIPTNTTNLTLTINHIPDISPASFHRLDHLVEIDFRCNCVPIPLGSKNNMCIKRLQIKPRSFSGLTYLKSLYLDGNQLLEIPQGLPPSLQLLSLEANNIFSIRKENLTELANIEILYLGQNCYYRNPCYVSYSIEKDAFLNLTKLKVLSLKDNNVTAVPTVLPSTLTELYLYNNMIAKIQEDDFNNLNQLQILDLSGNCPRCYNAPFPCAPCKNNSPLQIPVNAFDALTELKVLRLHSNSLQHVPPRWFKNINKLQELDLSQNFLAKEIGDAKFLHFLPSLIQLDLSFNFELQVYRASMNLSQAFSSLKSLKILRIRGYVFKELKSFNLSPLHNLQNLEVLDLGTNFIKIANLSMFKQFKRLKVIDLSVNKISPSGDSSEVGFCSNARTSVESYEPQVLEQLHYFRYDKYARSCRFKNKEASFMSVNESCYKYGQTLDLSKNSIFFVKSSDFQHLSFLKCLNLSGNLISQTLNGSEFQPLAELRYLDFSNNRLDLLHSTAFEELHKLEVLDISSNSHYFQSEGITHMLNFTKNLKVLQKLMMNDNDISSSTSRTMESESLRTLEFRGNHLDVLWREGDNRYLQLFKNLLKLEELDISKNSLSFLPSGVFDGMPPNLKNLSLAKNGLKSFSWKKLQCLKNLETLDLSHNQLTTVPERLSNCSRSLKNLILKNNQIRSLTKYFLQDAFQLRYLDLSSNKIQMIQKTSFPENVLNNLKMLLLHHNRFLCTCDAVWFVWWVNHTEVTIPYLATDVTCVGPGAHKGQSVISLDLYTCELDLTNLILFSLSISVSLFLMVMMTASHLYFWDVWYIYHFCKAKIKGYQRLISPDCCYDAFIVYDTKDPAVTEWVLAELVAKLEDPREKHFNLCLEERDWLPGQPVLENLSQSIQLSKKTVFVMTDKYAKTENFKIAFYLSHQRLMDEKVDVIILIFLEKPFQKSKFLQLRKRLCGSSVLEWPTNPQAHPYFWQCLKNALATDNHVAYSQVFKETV

EC50 (Toll-like receptor 8): 20 µM
EC50 (Toll-like receptor 7): 1.26 µM
SMILES: CCC[C@H](C)Oc1nc(N)c2[nH]c(=O)n(CCCCCN3CCCCC3)c2n1 [GSK-2245035]
